Assay results published in paper PMC4172929, “Patched Targeting Peptides for Imaging and Treatment of Hedgehog Positive Breast Tumors” (BioMed Research International, 2014).

Tested on: 13762 breast carcinoma xenografts
Assay: Paclitaxel treatment of tumor xenografts (PTCH immunohistochemistry, tumor volume)
Type: in vivo, rat
Conditions: rats, 20 mg/kg paclitaxel
Description: All animal work was carried out in the Small Animal Imaging Facility (SAIF) at the University of Texas M.D. Anderson Cancer Center under an approved Institutional Animal Care and Use Committee (IACUC) protocol. Female Fischer 344 rats (150 ± 25 g, n = 6) (Harlan Sprague-Dawley, Indianapolis, IN) were inoculated subcutaneously with 0.1 mL of a 13762 breast carcinoma cell suspension (10^5 cells/rat of a breast tumor cell line specific to Fischer rats) into the hind legs using 25-gauge needles. Studies were performed 12–14 days after inoculation when tumors reached approximately 1 cm in diameter. For treatment studies, rats were injected with 20 mg/kg paclitaxel and reimaged 7 days later. After the posttreatment scan, tumors were removed and formalin sections were made. Control tumors were taken from untreated […] 13 days after inoculation. Sections were stained with an anti-patched antibody (Santa Cruz) using a peroxide-based immunohistochemical detection kit (Dako) according to the manufacturer's instructions.

## CC(=O)O[C@H]1C(=O)[C@@]2(C)[C@H]([C@H](OC(=O)c3ccccc3)[C@]3(O)C[C@H](OC(=O)[C@H](O)[C@@H](NC(=O)c4ccccc4)c4ccccc4)C(C)=C1C3(C)C)[C@]1(OC(C)=O)CO[C@@H]1C[C@@H]2O [paclitaxel]
  tumor volume after treatment: decrease
Seven days after treatment, immunohistochemistry
  PTCH protein expression in the residual tumor: increase
